Columns and labels:
[1] = test system: cad-11 protein in endometrial stromal cells; experiment: Western blot of cad-11 protein in cultured endometrial stromal cells treated with gonadal steroids; type: cell-based, human
Method: (§1) Endometrial tissue biopsies (n=6) were obtained from women of reproductive age during the mid-secretory phase of the menstrual cycle. All patients had normal menstrual cycles and had not received hormones for at least three months prior to the collection of tissue. The stage of the menstrual cycle was determined by the last menstrual period and confirmed by histological evaluation.
The endometrial stromal cells were separated from the glandular epithelium by enzymatic digestion and mechanical dissociation. The endometrial biopsy specimens were minced and subjected to 0.1% colagenase (type 1A. Sigma Chemical Co., St. Louis. MO) and 0.1% hyaluronidase (type I-S, Sigma Chemical Co.) digestion in a shaking water bath at 37° C. for 1 hour. The cell digest was then passed through a nylon sieve (38 m). The isolated glands were retained on the sieve and the eluate containing the stromal cells collected in a 50 ml tube. […] The purity of the cell cultures was determined by immunocytochemical staining for vimentin, cytokeratin, muscle actin, and […]. […]
(§2) The results are presented as the mean relative absorbance (+SE) for three independent experiments. Statistical differences between time points and treatments were assessed by the analysis of variance (ANOVA). […] Significant differences between the means were determined using the least significant test.

[2] = test system: cad-11 mRNA in endometrial stromal cells; experiment: Northern blot of cad-11 mRNA in cultured endometrial stromal cells treated with gonadal steroids; type: cell-based, human; settings: P4 1 mM, E2 30 nM
Method: as §1
The endometrial stromal cells were separated from the glandular epithelium by enzymatic digestion and mechanical dissociation. […] The purity of the cell cultures was determined by immunocytochemical staining for vimentin, cytokeratin, muscle actin, and […]. […]
The Northern blots were hybridized with radiolabelled cDNA probes specific for human cad-11 according to the methods of MacCalman et al. (1992) Developmental Dynamics 195:127-132. […] The absorbance values obtained for cad-11 mRNA transcripts were normalized relative to the 18S rRNA absorbance value.
as §2

cad-11 = experiment: Cad-11 antisense/sense oligonucleotide studies, second oligonucleotide pair; type: cell-based, human; settings: no individual experiments specified
Method: Antisense oligonucleotide sequences (18 mers, 50% AT/GC) were selected from the full-length cad-11 cDNA sequence using the MacVector™ program. DNA sequences located near the 5′ end of the cad-11 cDNA were selected and compared to the human sequence databases of GenBank and EMBL bank. […] Sense oligonucleotides, OB-3 and OB-4, were prepared as controls. Phosphothiorate labelled oligonucleotides were prepared at the Biotechnology Lab. of The University of British Columbia. The same results were obtained using OB-1 and OB-3, as with OB-2 and OB-4.

[3] = test system: N-cadherin mRNA in human granulosa cells; experiment: Specificity of antisense in granulosa cells, Northern blot, N-cadherin probe; type: cell-based; settings: 0.5-5 M, 24 hours
Method: (§3) In order to determine the specificity of OB-1, the effect of OB-1 was determined in human granulosa cells. Human granulosa cells express three cadherin subtypes (cad-11, cad-6 and N-cad) as they undergo spontaneous luteinization in culture. Granulosa cells which had been cultured for 36 hours were treated with OB-1 or OB-3 (0.5-5 M). The cultures were maintained for a further 24 hours, after which the cells were harvested for Northern analysis. Northern blots were probed with cad-11, cad-6, or N-cadherin (neural cadherin) cDNA probes as previously described. OB-1 caused a reduction in the levels of the cad-11 RNA transcript in a dose-dependent manner but had no effect on cad-6 or N-cadherin mRNA levels. In contrast.

human decidual cells = experiment: Effect on primary cultures of human decidual cells; settings: 0.5-5 M for 24 hours
[4] = test system: PC3 cells treated with TGF-1; experiment: Effect of oligonucleotides on PC3 cells treated with TGF-1; settings: 0.5-5 M for 24 hours
[5] = test system: Villous cytotrophoblasts isolated from the human term placenta, cultured 72 hours
villous cytotrophoblasts = experiment: Reversibility of oligonucleotide effects on villous cytotrophoblasts; type: cell-based, human; settings: 48 hours with oligonucleotide, washed, further 24 hours
Method: To determine whether the effects of OB-1 on villous cytotrophoblasts are reversible, cells were cultured in the presence of OB-1 or OB-3 for 48 hours. The cells were washed thoroughly with PBS. The culture medium was then replaced and the cells cultured for a further 24 hours. […] The majority of cells (90%) detached from the culture and dish. Cad-11 was not detected in the remaining cells.

[6] = test system: cytotrophoblasts isolated from term placenta; experiment: Morphology of cytotrophoblasts by light microscopy and indirect immunofluorescence; type: cell-based, human; settings: indirect immunofluorescence for E-cadherin
From the text: The effect of OB-1 and OB-3 on the morphology of the cytotrophoblast was examined by light microscopy and indirect immunofluoresence.

[7] = test system: cad-11 RNA transcript in human granulosa cells; experiment: Specificity of antisense in granulosa cells, Northern blot, cad-11 probe; type: cell-based; parameters: dose or concentration left out as unconfirmed; settings: 24 hours, dose-dependent manner for OB-1
Method: as §3

[8] = test system: cad-6 mRNA in human granulosa cells; experiment: Specificity of antisense in granulosa cells, Northern blot, cad-6 probe; type: cell-based; settings: 0.5-5 M, 24 hours
Method: as §3

[9] = test system: Cos-1 cells transfected with the steroid acute regulatory protein; experiment: Non-specific effects on cell number and steroidogenic capacity in Cos-1 cells; type: cell-based; parameters: cell number (Coulter cell counter): dose or concentration left out as unconfirmed
Method: Non-specific effects of the antisense oligonucleotides on cell viability and the steroidogenic capacity of cells was determined using Cos-1 cells transfected with the steroid acute regulatory protein (from Dr. J. F. Strauss, III. University of Pennsylvania, Philadelphia, Pa.). […] The COS-1 cells were cultured in the presence or absence of varying concentrations of OB-1 OR OB-3 (0.5-5 M) for 48 hours. The cell number present in each culture was determined using a Coulter™ cell counter and P4 concentrations present in the culture medium using a Progesterone RIA™ kit. As determined by these parameters.

CC(=O)[C@H]1CC[C@H]2[C@@H]3CCC4=CC(=O)CC[C@]4(C)[C@H]3CC[C@]12C [P4, progesterone]
time in culture at which maximum cad-11 expression levels were detected [1]: 12 days | cad-11 protein expression ([1]; P4, E2 30 nM, alone or together, increase seen at 2 days of culture): increase | time in culture at which maximum cad-11 mRNA levels were observed [2]: 12 days | stromal cad-11 mRNA levels ([2]; alone or together, increase seen after 2 days of culture, studied 0-12 days): significant increase

OB-2: cad-11 antisense oligonucleotide, 18 mer: CAC GAA GAA CTG GTT CCA (SEQ ID NO:2) (antisense CACGAAGAACTGGTTCCA; listed as DNA, chemistry not given here; listed as Homo sapiens)
results compared with the pair OB-1 (antisense) and OB-3 (sense) (cad-11): same results

OB-3: sense oligonucleotide prepared as control: ATG ACA AAT GTT CGG CGG (SEQ ID NO:3) (sense ATGACAAATGTTCGGCGG; chemistry not given here) [reference compound]
N-cadherin mRNA levels [3]: did not effect | cell viability and number (human decidual cells): did not have a significant effect | cell viability and number [4]: did not have a significant effect | viability of syncytial structures (trypan blue) [5]: viable | structures observed (phase contrast microscopy) ([5]; oligonucleotide added after 72 hours of culture, OB-1 for 24 hours): Large syncytial structures | structures observed after wash-out (villous cytotrophoblasts): large syncytial structures | composition of cellular structures formed (fusion) [6]: multinucleated syncytial structures | levels of the cad-11 RNA transcript [7]: did not effect | cad-6 mRNA levels [8]: did not effect | steroidogenic capacity (P4 concentrations in culture medium, RIA) ([9]; 0.5-5 M for 48 hours): did not have a significant effect | cell number (Coulter cell counter) ([9]; for 48 hours): did not have a significant effect

OB-4: sense oligonucleotide prepared as control: ACC TTG GTC AAG AAG CAC (SEQ ID NO:4) (sense ACCTTGGTCAAGAAGCAC; listed as DNA, chemistry not given here) [reference compound]
results compared with the pair OB-1 (antisense) and OB-3 (sense) (cad-11): same results
